Columns and labels:
Assay in all cases: relative viability (nuclei count vs DMSO), 5 days (fraction); higher = more cells survive
[1] = compound: CC1=C(C(=O)N2C=CSC2=N1)CCN3CCC(=C(C4=CC=CC=C4)C5=CC=C(C=C5)F)CC3 + COc1cccc2cc(-c3nc([C@H]4CC[C@H](C(=O)O)CC4)n4ncnc(N)c34)[nH]c12 [OSI-027] (partner 0.5 µM)
Summary of the method: (§1)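 Values are medians from duplicate plates. Each reflects relative viability, defined as the nuclei count of treated wells over that of vehicle wells. Lung cancer cell lines in 1536-well plates were pin-tool dosed one day after seeding with one drug alone or with a fixed anchor-drug dose plus five library-drug doses (not always all listed) in √10 steps, then fixed, stained and imaged at 4× after 5 days.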

[2] = compound: CC1=C(C(=O)N2C=CSC2=N1)CCN3CCC(=C(C4=CC=CC=C4)C5=CC=C(C=C5)F)CC3 + CC(=O)Nc1cccc(-n2c(=O)n(C3CC3)c(=O)c3c(Nc4ccc(I)cc4F)n(C)c(=O)c(C)c32)c1 [Trametinib] (partner 0.02 µM)
Summary of the method: as §1

[3] = compound: CC1=C(C(=O)N2C=CSC2=N1)CCN3CCC(=C(C4=CC=CC=C4)C5=CC=C(C=C5)F)CC3 + N=C(N)NC(=N)NCCc1ccccc1 [Phenformin] (partner 250 µM)
Summary of the method: as §1

[4] = compound: CC1=C(C(=O)N2C=CSC2=N1)CCN3CCC(=C(C4=CC=CC=C4)C5=CC=C(C=C5)F)CC3
Summary of the method: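 Viability was read as treated-well nuclei divided by vehicle-well nuclei, using the median across plates. Lung cancer cell lines in 1536-well plates were kept overnight at 37 °C, pinned with five √10-spaced library-drug doses, and after 5 days were Hoechst-stained, imaged at 4× and counted in MetaXpress. Plates passed only with control CV below 25% and at least one doubling.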

| Cell Line | relative viability ([1]; first compound 0.08 µM) | relative viability ([1]; first compound 0.253 µM) | relative viability ([1]; first compound 0.8 µM) | relative viability ([1]; first compound 2.53 µM) | relative viability ([1]; first compound 8 µM) | relative viability ([2]; first compound 0.08 µM) | relative viability ([2]; first compound 0.253 µM) | relative viability ([2]; first compound 0.8 µM) | relative viability ([2]; first compound 2.53 µM) | relative viability ([2]; first compound 8 µM) | relative viability ([3]; first compound 0.08 µM) | relative viability ([3]; first compound 0.253 µM) | relative viability ([3]; first compound 0.8 µM) | relative viability ([3]; first compound 2.53 µM) | relative viability ([3]; first compound 8 µM) | relative viability ([4]; 0.08 µM) | relative viability ([4]; 0.253 µM) | relative viability ([4]; 0.8 µM) | relative viability ([4]; 2.53 µM) | relative viability ([4]; 8 µM) |
| --- | --- | --- | --- | --- | --- | --- | --- | --- | --- | --- | --- | --- | --- | --- | --- | --- | --- | --- | --- | --- |
| LU99A | 0.333 | 0.313 | 0.254 | 0.276 | 0.25 | 0.584 | 0.522 | 0.586 | 0.502 | 0.353 | 0.777 | 0.846 | 0.767 | 0.841 | 0.658 | 1.13 | 0.99 | 0.88 | 0.972 | 0.89 |
| LXF-289 | 0.784 | 0.79 | 0.779 | 0.884 | 0.55 | 0.592 | 0.67 | 0.738 | 0.634 | 0.537 | 0.463 | 0.542 | 0.508 | 0.482 | 0.376 | 0.952 | 1.1 | 1.03 | 1.03 | 0.893 |
| NCI-H23 | 0.572 | 0.517 | 0.482 | 0.738 | 0.399 | 0.38 | 0.343 | 0.387 | 0.368 | 0.22 | 0.757 | 0.668 | 0.782 | 0.773 | 0.564 | 1.06 | 1.06 | 0.857 | 0.964 | 0.718 |
| NCI-H322M | 0.522 | 0.509 | 0.547 | 0.596 | 0.442 | 0.478 | 0.424 | 0.558 | 0.604 | 0.469 | 0.745 | 0.785 | 0.737 | 0.773 | 0.873 | 0.89 | 0.91 | 0.877 | 1.09 | 1.08 |
| NCI-H358 | 0.681 | 0.666 | 0.666 | 1.13 | 0.469 | 0.12 | 0.121 | 0.127 | 0.133 | 0.136 | 0.344 | 0.361 | 0.361 | 0.379 | 0.243 | 0.802 | 0.921 | 0.978 | 1.2 | 0.639 |
| NCI-H441 | 0.505 | 0.582 | 0.576 | 0.754 | 0.416 | 0.423 | 0.404 | 0.445 | 0.541 | 0.372 | 0.797 | 0.759 | 0.918 | 0.737 | 0.667 | 0.736 | 1.06 | 1.15 | 1.05 | 0.593 |
| NCI-H460 | 0.951 | 0.633 | 0.605 | 0.712 | 0.191 | 0.129 | 0.132 | 0.129 | 0.124 | 0.129 | 0.474 | 0.562 | 0.611 | 0.548 | 0.113 | 0.923 | 0.956 | 1.06 | 1.04 | 0.567 |
| NCI-H520 | 0.251 | 0.247 | 0.251 | 0.212 | 0.233 | 0.712 | 0.625 | 0.631 | 0.778 | 0.393 | 0.784 | 0.643 | 0.836 | 0.539 | 0.468 | 0.981 | 0.974 | 1.03 | 1.05 | 0.657 |
| NCI-H522 | 0.857 | 0.804 | 0.766 | 0.633 | 0.811 | 0.758 | 0.74 | 0.7 | 0.758 | 0.778 | 0.769 | 0.627 | 0.677 | 0.607 | 0.566 | 1.15 | 1.02 | 0.834 | 0.863 | 0.774 |
| NCI-H596 | 0.668 | 0.788 | 0.746 | 0.827 | 0.41 | 0.703 | 0.815 | 0.913 | 0.863 | 0.708 | 0.702 | 0.826 | 0.915 | 0.74 | 0.578 | 1.02 | 0.964 | 0.981 | 0.952 | 0.852 |
| NCI-H647 | 0.581 | 0.66 | 0.652 | 0.72 | 0.316 | 0.388 | 0.609 | 0.541 | 0.612 | 0.249 | 0.573 | 0.644 | 0.54 | 0.438 | 0.348 | 0.996 | 0.894 | 0.877 | 1.09 | 0.462 |
| NCI-H650 | 0.513 | 0.489 | 0.551 | 0.504 | 0.531 | 0.997 | 0.891 | 0.986 | 1.07 | 0.932 | 0.404 | 0.521 | 0.421 | 0.497 | 0.404 | 0.853 | 0.963 | 0.904 | 1.1 | 0.816 |
| NCI-H661 | 0.618 | 0.659 | 0.691 | 0.712 | 0.627 | 0.49 | 0.486 | 0.525 | 0.518 | 0.462 | 0.242 | 0.268 | 0.277 | 0.297 | 0.291 | 0.851 | 1 | 1.01 | 1.02 | 0.764 |
| NCI-H727 | 0.52 | 0.51 | 0.527 | 0.638 | 0.45 | 0.342 | 0.365 | 0.366 | 0.397 | 0.39 | 0.593 | 0.55 | 0.481 | 0.464 | 0.47 | 0.712 | 1.03 | 0.896 | 1.06 | 0.687 |
| NCI-H838 | 0.445 | 0.339 | 0.37 | 0.454 | 0.352 | 0.391 | 0.558 | 0.565 | 0.617 | 0.24 | 0.629 | 0.533 | 0.569 | 0.576 | 0.464 | 0.779 | 0.998 | 0.987 | 1.22 | 0.704 |

Reference: the supplement of paper PMC10307832
